# Test results: PubChem BioAssay (NCI)
#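 These data come from cells grown in 96-well plates and exposed to compound for 48 hours at five concentrations. Here, GI50 denotes the concentration required for 50% inhibition of growth. At the TGI there is no net growth.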
# Legend:
# Assay in all cases: NCI tumour cell line growth inhibition, 48 h
# NCI-H23 lung = test system: NCI-H23 lung
# MALME-3M melanoma = test system: MALME-3M melanoma
# U251 CNS = test system: U251 CNS
# OVCAR-5 ovarian = test system: OVCAR-5 ovarian
# RPMI-8226 leukemia = test system: RPMI-8226 leukemia
# NCI/ADR-RES ovarian = test system: NCI/ADR-RES ovarian
# CAKI-1 renal = test system: CAKI-1 renal
# SW-620 colon = test system: SW-620 colon
# UACC-257 melanoma = test system: UACC-257 melanoma
# HCT-15 colon = test system: HCT-15 colon
# COLO 205 colon = test system: COLO 205 colon
# HCT-116 colon = test system: HCT-116 colon
# A549 NSCLC = test system: A549 NSCLC
# HS 578T breast = test system: HS 578T breast
# MDA-MB-231 breast = test system: MDA-MB-231 breast
# KM12 colon = test system: KM12 colon
# SR leukemia = test system: SR leukemia
# NCI-H522 lung = test system: NCI-H522 lung
# NCI-H226 lung = test system: NCI-H226 lung
# HOP-92 NSCLC = test system: HOP-92 NSCLC
# HL-60(TB) leukemia = test system: HL-60(TB) leukemia
# MDA-MB-435 = test system: MDA-MB-435
# SF-539 CNS = test system: SF-539 CNS
# TK-10 renal = test system: TK-10 renal
# T-47D breast = test system: T-47D breast
# OVCAR-8 ovarian = test system: OVCAR-8 ovarian
# SNB-75 CNS = test system: SNB-75 CNS
# SNB-19 CNS = test system: SNB-19 CNS
# ACHN renal = test system: ACHN renal
# BT-549 breast = test system: BT-549 breast
# SN12C renal = test system: SN12C renal
# OVCAR-4 ovarian = test system: OVCAR-4 ovarian
# CCRF-CEM leukemia = test system: CCRF-CEM leukemia
# HCC-2998 colon = test system: HCC-2998 colon
# SK-MEL-2 melanoma = test system: SK-MEL-2 melanoma
# OVCAR-3 ovarian = test system: OVCAR-3 ovarian
# SF-268 CNS = test system: SF-268 CNS
# PC-3 prostate = test system: PC-3 prostate
# SF-295 CNS = test system: SF-295 CNS
# HT29 colon = test system: HT29 colon
# LOX IMVI melanoma = test system: LOX IMVI melanoma
# EKVX NSCLC = test system: EKVX NSCLC
# SK-MEL-28 melanoma = test system: SK-MEL-28 melanoma
# IGROV1 ovarian = test system: IGROV1 ovarian
# SK-MEL-5 melanoma = test system: SK-MEL-5 melanoma
# UACC-62 melanoma = test system: UACC-62 melanoma
# HOP-62 NSCLC = test system: HOP-62 NSCLC
# M14 melanoma = test system: M14 melanoma
# A498 renal = test system: A498 renal
# MOLT-4 leukemia = test system: MOLT-4 leukemia
# 786-0 renal = test system: 786-0 renal
# NCI-H460 lung = test system: NCI-H460 lung
# UO-31 renal = test system: UO-31 renal
# MCF7 breast = test system: MCF7 breast
smiles,measurement,setting,value
Cc1cn2c(/C=C3\C(=O)N(C)c4ccc(Cl)cc43)c(C)nc2s1,GI50,NCI-H23 lung,3.71 µM
same,TGI,NCI-H23 lung,27.3 µM
same,GI50,MALME-3M melanoma,69.6 µM
same,TGI,MALME-3M melanoma,> 100 µM
same,GI50,U251 CNS,3.27 µM
same,TGI,U251 CNS,12.3 µM
same,GI50,OVCAR-5 ovarian,3.16 µM
same,TGI,OVCAR-5 ovarian,12.2 µM
same,GI50,RPMI-8226 leukemia,2.84 µM
same,TGI,RPMI-8226 leukemia,9.4 µM
same,GI50,NCI/ADR-RES ovarian,1.9 µM
same,TGI,NCI/ADR-RES ovarian,5.66 µM
same,GI50,CAKI-1 renal,3.11 µM
same,TGI,CAKI-1 renal,> 100 µM
same,GI50,SW-620 colon,4.27 µM
same,TGI,SW-620 colon,> 100 µM
same,GI50,UACC-257 melanoma,3.37 µM
same,TGI,UACC-257 melanoma,38.6 µM
same,GI50,HCT-15 colon,4.03 µM
same,TGI,HCT-15 colon,> 100 µM
same,GI50,COLO 205 colon,3.47 µM
same,TGI,COLO 205 colon,> 100 µM
same,GI50,HCT-116 colon,2.55 µM
same,TGI,HCT-116 colon,14.6 µM
same,GI50,A549 NSCLC,6.88 µM
same,TGI,A549 NSCLC,32.9 µM
same,GI50,HS 578T breast,8.28 µM
same,TGI,HS 578T breast,> 100 µM
same,GI50,MDA-MB-231 breast,4.5 µM
same,TGI,MDA-MB-231 breast,23.5 µM
same,GI50,KM12 colon,1.29 µM
same,TGI,KM12 colon,> 100 µM
same,GI50,SR leukemia,0.226 µM
same,TGI,SR leukemia,1.52 µM
same,GI50,NCI-H522 lung,2.76 µM
same,TGI,NCI-H522 lung,7.76 µM
same,GI50,NCI-H226 lung,18.5 µM
same,TGI,NCI-H226 lung,> 100 µM
same,GI50,HOP-92 NSCLC,6.3 µM
same,TGI,HOP-92 NSCLC,45.4 µM
same,GI50,HL-60(TB) leukemia,3.36 µM
same,TGI,HL-60(TB) leukemia,> 100 µM
same,GI50,MDA-MB-435,1.94 µM
same,TGI,MDA-MB-435,5.66 µM
same,GI50,SF-539 CNS,2.46 µM
same,TGI,SF-539 CNS,6.93 µM
same,GI50,TK-10 renal,9.65 µM
same,TGI,TK-10 renal,73 µM
same,GI50,T-47D breast,> 100 µM
same,TGI,T-47D breast,> 100 µM
same,GI50,OVCAR-8 ovarian,5.5 µM
same,TGI,OVCAR-8 ovarian,> 100 µM
same,GI50,SNB-75 CNS,2.52 µM
same,TGI,SNB-75 CNS,7.32 µM
same,GI50,SNB-19 CNS,4.25 µM
same,TGI,SNB-19 CNS,92.9 µM
same,GI50,ACHN renal,4.62 µM
same,TGI,ACHN renal,32.6 µM
same,GI50,BT-549 breast,6.4 µM
same,TGI,BT-549 breast,> 100 µM
same,GI50,SN12C renal,5.24 µM
same,TGI,SN12C renal,> 100 µM
same,GI50,OVCAR-4 ovarian,6.18 µM
same,TGI,OVCAR-4 ovarian,91 µM
same,GI50,CCRF-CEM leukemia,2.74 µM
same,TGI,CCRF-CEM leukemia,10.1 µM
same,GI50,HCC-2998 colon,2.61 µM
same,TGI,HCC-2998 colon,6.18 µM
same,GI50,SK-MEL-2 melanoma,6.81 µM
same,TGI,SK-MEL-2 melanoma,> 100 µM
same,GI50,OVCAR-3 ovarian,2.55 µM
same,TGI,OVCAR-3 ovarian,6.93 µM
same,GI50,SF-268 CNS,3.02 µM
same,TGI,SF-268 CNS,> 100 µM
same,GI50,PC-3 prostate,0.99 µM
same,TGI,PC-3 prostate,4.38 µM
same,GI50,SF-295 CNS,3.63 µM
same,TGI,SF-295 CNS,> 100 µM
same,GI50,HT29 colon,1.9 µM
same,TGI,HT29 colon,12 µM
same,GI50,LOX IMVI melanoma,5.05 µM
same,TGI,LOX IMVI melanoma,> 100 µM
same,GI50,EKVX NSCLC,9.9 µM
same,TGI,EKVX NSCLC,> 100 µM
same,GI50,SK-MEL-28 melanoma,6.6 µM
same,TGI,SK-MEL-28 melanoma,> 100 µM
same,GI50,IGROV1 ovarian,2.99 µM
same,TGI,IGROV1 ovarian,> 100 µM
same,GI50,SK-MEL-5 melanoma,1.34 µM
same,TGI,SK-MEL-5 melanoma,19.5 µM
same,GI50,UACC-62 melanoma,3.7 µM
same,TGI,UACC-62 melanoma,> 100 µM
same,GI50,HOP-62 NSCLC,5.6 µM
same,TGI,HOP-62 NSCLC,72 µM
same,GI50,M14 melanoma,3.3 µM
same,TGI,M14 melanoma,32.1 µM
same,GI50,A498 renal,10.8 µM
same,TGI,A498 renal,> 100 µM
same,GI50,MOLT-4 leukemia,3.1 µM
same,TGI,MOLT-4 leukemia,15.9 µM
same,GI50,786-0 renal,4.92 µM
same,TGI,786-0 renal,21.7 µM
same,GI50,NCI-H460 lung,2.86 µM
same,TGI,NCI-H460 lung,15.3 µM
same,GI50,UO-31 renal,7.18 µM
same,TGI,UO-31 renal,67.1 µM
same,GI50,MCF7 breast,7.01 µM
same,TGI,MCF7 breast,55.5 µM
